For 8 molecules, IC50, solubility and inhibition in vivo results are on record in ChEMBL document CHEMBL4052785, “Discovery of (R)-5-(benzo[d][1,3]dioxol-5-yl)-7-((1-(vinylsulfonyl)pyrrolidin-2-yl)methyl)-7H-pyrrolo[2,3-d]pyrimidin-4-amine (B6) as a potent Bmx inhibitor for the treatment of NSCLC” (Bioorg Med Chem Lett, 2017).

As a reminder, the pIC50 is the negative decadic logarithm of the IC50, by convention in mol/L. The solubility is the dissolved amount per volume that the medium holds. High values mean much dissolved substance, low ones little dissolved substance.

pIC50: −log10 of the molar value. ≈ marks a conversion by molar mass, not a printed value. Bounds are passed on as bounds.

Data set [1] has as its system A549. The data set is described as follows: Antiproliferative activity against human A549 cells harboring wild type EGFR after 72 hrs by MTT assay. It counts as functional, cell-based. The settings on record: A549, 72 h. (In general: Formazan colour is commonly taken as a measure of viable cells.)
The test system of data set [2] is NCI-H1975. Briefly: Antiproliferative activity against human NCI-H1975 cells harboring EGFR L858R/T790M mutant after 72 hrs by MTT assay. Format: functional, cell-based. The settings on record: NCI-H1975, 72 h.
Data set [3] has as its system HCC827. Briefly: Antiproliferative activity against human HCC827 cells harboring EGFR Del19 mutant after 72 hrs by MTT assay. Format: functional, cell-based. The settings on record: HCC827, 72 h.
Data set [4] in a line: Aqueous solubility of the compound at 1 mg. Format: physicochemical.
Data set [5] relates to NCI-H1975. Briefly: Antitumor activity against human NCI-H1975 cells xenografted in nude mouse assessed as tumor growth inhibition at 25 mg/kg administered via oral gavage qd measured every 2 days up to 18 days relative to control. The following applies: read-out: TGI. It counts as functional. In general terms: In xenograft studies the graft and the host belong to different species.

On to `C=CS(=O)(=O)N1CC[C@H](Cn2cc(-c3ccc4c(c3)OCO4)c3c(N)ncnc32)C1`, for which the negative-log IC50 (pIC50) is 5.75 in data set [1], 6.48 in data set [2] and 7.80 in data set [3]. Also, the solubility in data set [4] came to 100 µg/mL (≈ 234 µM).
In the case of `C=CS(=O)(=O)N1CCC[C@@H]1Cn1cc(-c2ccc(Oc3ccccc3)cc2)c2c(N)ncnc21`, the negative logarithm of the IC50 (pIC50) in data set [1] is 5.13; in data set [2] it was 6.36; in data set [3], 6.30. For the same molecule, in data set [4], the solubility is under 10 µg/mL.
In the case of `C=CC(=O)N1CCC[C@@H]1Cn1cc(-c2ccc3c(c2)OCO3)c2c(N)ncnc21`, the negative-log IC50 (pIC50) was 4.89 in data set [1] and 5.53 in data set [2]. In addition, the solubility in data set [4] is 100 µg/mL (≈ 255 µM).
On to `C=CS(=O)(=O)N1CC[C@H](Cn2cc(-c3ccc(Oc4ccccc4)cc3)c3c(N)ncnc32)C1`, for which the negative-log IC50 (pIC50) in data set [1] was 4.89; in data set [2], 6.04; in data set [3] it was 6.24. The molecule further yielded a solubility in data set [4] of under 10 µg/mL.
With `C=CC(=O)N1CCC(Cn2cc(-c3ccc4c(c3)OCO4)c3c(N)ncnc32)C1` (single isomer, unassigned), the negative logarithm of the IC50 (pIC50) is 5.08 in data set [1] and 5.20 in data set [2]. Besides, the solubility in data set [4] worked out at 100 µg/mL (≈ 255 µM).
The corresponding values for `C=CC(=O)N1CCC[C@@H]1Cn1cc(-c2ccc(Oc3ccccc3)cc2)c2c(N)ncnc21` are 4.81, 5.72 and under 10 µg/mL.
The corresponding values for `C=CC(=O)N1CCC(Cn2cc(-c3ccc(Oc4ccccc4)cc3)c3c(N)ncnc32)C1` (single isomer, unassigned) are 4.85, 5.20 and under 10 µg/mL.
For the molecule `C=CC(=O)N1CCC[C@@H](n2nc(-c3ccc(Oc4ccccc4)cc3)c3c(N)ncnc32)C1` [IBRUTINIB], the pIC50 in data set [1] is 4.66; in data set [2], 5.90; in data set [3], 7.41. The molecule also displayed a solubility in data set [4] of under 10 µg/mL. The inhibition in vivo at 25 mg/kg in data set [5] stood at 59.6%.
